Reference: ChEMBL document CHEMBL1201862, “PubChem BioAssay data set” (2004)
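1) Cells in 96-well plates. 2) Compound, 48 h, 5 concentrations. 3) Linear interpolation between surrounding doses. 4) Unreached endpoint = highest concentration. Abbreviation: GI50, concentration required for 50% inhibition of growth.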 Calls of active or inactive are those of the source. No stated cut-off is given here; in the data, active = GI50 up to about 1.1 µM and inactive = higher.

Experiments:
Assay in all cases: inhibition of tumour cell growth, NCI panel, 48 h
NCI-H460 = system: NCI-H460
SNB-19 = system: SNB-19
UACC-257 = system: UACC-257
M14 = system: M14
SK-MEL-2 = system: SK-MEL-2
SK-MEL-28 = system: SK-MEL-28
Hs-578T = system: Hs-578T
RXF 393 = system: RXF 393
MOLT-4 = system: MOLT-4
HCT-116 = system: HCT-116
NCI-H522 = system: NCI-H522
SF-539 = system: SF-539
MDA-MB-435 = system: MDA-MB-435
MDA-N = system: MDA-N
CAKI-1 = system: CAKI-1
A549 = system: A549
HL-60 = system: HL-60
SF-295 = system: SF-295
SN12C = system: SN12C
T47D = system: T47D

Measured: GI50

C=C1C(=O)CC2C(=O)C(C)(O)CC/C=C(\C)C(=O)CC12 (stereo not drawn)
inactive: NCI-H460 > 100 µM | SNB-19 > 91.4 µM | UACC-257 20 µM | M14 16.4 µM | SK-MEL-2 28.8 µM | SK-MEL-28 24.3 µM | Hs-578T 2.96 µM | RXF 393 14.4 µM | MOLT-4 4.14 µM | HCT-116 10.3 µM | NCI-H522 3.19 µM | SF-539 18.2 µM | MDA-MB-435 24.6 µM | MDA-N 17.3 µM | CAKI-1 3.17 µM | A549 60.1 µM | HL-60 1.53 µM | SF-295 > 100 µM | SN12C 15.2 µM

Cn1nc2ccc([N+](=O)[O-])cc2[n+]1[O-]
inactive: NCI-H460 > 100 µM | SNB-19 > 100 µM | UACC-257 > 100 µM | M14 > 100 µM | SK-MEL-2 > 100 µM | Hs-578T > 100 µM | RXF 393 > 100 µM | MOLT-4 > 100 µM | HCT-116 > 100 µM | NCI-H522 > 100 µM | T47D > 100 µM | SF-539 > 100 µM | MDA-MB-435 > 100 µM | MDA-N 90.4 µM | CAKI-1 > 100 µM | A549 > 100 µM | SF-295 > 100 µM | SN12C 22.4 µM

CCSC1=N/C(=C\c2ccco2)C(=O)N1
inactive: SNB-19 70.8 µM | M14 > 100 µM | SK-MEL-2 > 100 µM | SK-MEL-28 > 100 µM | Hs-578T > 100 µM | MOLT-4 > 100 µM | HCT-116 > 100 µM | NCI-H522 > 100 µM | MDA-MB-435 > 100 µM | MDA-N > 100 µM | A549 > 100 µM | SF-295 > 100 µM | SN12C > 100 µM

COCN1C(=O)[C@@H]2CCCN2C(=O)c2cc(N)ccc21
inactive: SNB-19 > 100 µM | UACC-257 > 100 µM | M14 > 100 µM | SK-MEL-2 > 100 µM | SK-MEL-28 > 100 µM | Hs-578T > 100 µM | RXF 393 > 100 µM | HCT-116 > 100 µM | NCI-H522 > 100 µM | T47D > 100 µM | SF-539 > 100 µM | MDA-MB-435 > 100 µM | MDA-N > 100 µM | CAKI-1 > 100 µM | A549 > 100 µM | SF-295 > 100 µM | SN12C > 100 µM

O=C(Cc1ccc2ccccc2c1)NCc1ccc(C(=O)NCCc2ccccc2)cc1
inactive: NCI-H460 > 100 µM | SNB-19 > 100 µM | UACC-257 > 100 µM | M14 > 100 µM | SK-MEL-2 > 100 µM | SK-MEL-28 > 100 µM | Hs-578T > 100 µM | RXF 393 > 100 µM | HCT-116 > 100 µM | NCI-H522 > 100 µM | T47D > 100 µM | MDA-MB-435 > 100 µM | MDA-N > 100 µM | CAKI-1 > 100 µM | A549 > 100 µM | SF-295 > 100 µM | SN12C > 100 µM

Cc1nc2cc(Cl)c(N)cc2[nH]1
inactive: NCI-H460 > 100 µM | SNB-19 > 100 µM | UACC-257 > 100 µM | M14 > 100 µM | SK-MEL-2 > 100 µM | SK-MEL-28 > 100 µM | Hs-578T > 100 µM | MOLT-4 > 100 µM | HCT-116 > 100 µM | NCI-H522 > 100 µM | T47D > 100 µM | SF-539 > 10 µM | MDA-MB-435 > 100 µM | MDA-N > 100 µM | CAKI-1 > 100 µM | A549 > 100 µM | HL-60 > 100 µM | SF-295 > 100 µM | SN12C > 100 µM

O=c1[nH]c(=O)n(C2OC(CO)C(O)C2O)c2nc(-c3ccc(-c4ccccc4)cc3)cnc12 (stereo not drawn)
inactive: NCI-H460 > 100 µM | SNB-19 > 100 µM | UACC-257 > 100 µM | M14 81.8 µM | SK-MEL-2 > 100 µM | Hs-578T > 100 µM | RXF 393 > 100 µM | MOLT-4 > 100 µM | HCT-116 > 100 µM | NCI-H522 > 100 µM | T47D > 100 µM | SF-539 > 100 µM | MDA-MB-435 > 100 µM | MDA-N > 100 µM | CAKI-1 > 100 µM | A549 > 100 µM | SF-295 > 100 µM | SN12C > 100 µM

Clc1ccc(Nc2ncco2)cc1Cl
inactive: NCI-H460 > 10 µM | SNB-19 > 10 µM | UACC-257 > 10 µM | M14 > 10 µM | SK-MEL-28 > 10 µM | Hs-578T > 10 µM | MOLT-4 > 10 µM | HCT-116 > 10 µM | NCI-H522 > 10 µM | T47D > 10 µM | SF-539 > 10 µM | MDA-MB-435 > 10 µM | MDA-N > 10 µM | CAKI-1 > 10 µM | A549 > 10 µM | SF-295 > 10 µM | SN12C > 10 µM
